The record followed here is ChEMBL document CHEMBL1146460, “Caulibugulones A-F, novel cytotoxic isoquinoline quinones and iminoquinones from the marine bryozoan Caulibugula intermis” (J Nat Prod, 2004).

This experiment can be described thus: Cytotoxicity against wild type mouse IC2 cells after 48 hrs by MTT assay. Particulars: IC2, 48 h. (In general: Tetrazolium dyes change colour on reduction, which living cells bring about.)

Converted amounts (≈) assume the structure as drawn.

Broadly, the IC50 is the concentration needed to halve the response being measured.

Turning to `CNC1=C(Cl)C(=O)c2ccncc2C1=O` [CAULIBUGULONE C], the IC50 came out at 0.22 µg/mL (≈ 0.988 µM).
Next, `CNC1=CC(=O)c2ccncc2C1=O` [CAULIBUGULONE A]: 0.34 µg/mL (≈ 1.81 µM); `CNC1=CC(=N)c2ccncc2C1=O` [CAULIBUGULONE E]: 0.03 µg/mL (≈ 0.16 µM).
Then `O=C1C=C(NCCO)C(=O)c2cnccc21` [CAULIBUGULONE D], with 1.67 µg/mL (≈ 7.65 µM); and `CNC1=C(Br)C(=O)c2ccncc2C1=O` [CAULIBUGULONE B], with 0.28 µg/mL (≈ 1.05 µM).
Next, `CNC1=C/C(=N\CCO)c2ccncc2C1=O` [CAULIBUGULONE F]: 0.1 µg/mL (≈ 0.432 µM).
